Series [1] addresses T1, human melatonin 1 receptors (human MT1 receptors) (Homo sapiens, UniProt P48039).
T1 construct: expressed in transfected cells; membrane fraction used
Description: Melatonin receptor binding inhibitory test (2-[125I] Iodomelatonin), MT1. The conditions noted are these: membrane fraction of CHO-hMelR7 cells, 25° C. for 2.5 hr. The protocol:
(§1) Melatonin receptor binding inhibitory test
(1) Preparation of CHO-hMelR7 Cells Expressing Human Melatonin 1 Receptors
A cDNA fragment (SEQ ID NO: 1) encoding full-length of human melatonin 1 receptors (human MT1 receptors) was incorporated into expression vector pAKKO-111H (former name pAKKO1.11H; Biochim Biophys Acta. Vol. 1219(2), pp. 251-259, 1994) to give plasmid pAKKO-hMelR7 for animal cell expression. CHO/dhfr-cells (ATCC, #CRL-9096) were plated at a concentration of 0.3×10^6 cells/dish in a 6 cm culture dish (Becton Dickinson), and cultured under the conditions of 37° C., 5% CO2 for 48 hr. The cells were transfected with pAKKO-hMelR7 plasmid DNA (5 μg) using Cellphect Transfection Kit (Amersham, #27-9268-01). The transfected cells were cultured in Dulbecco's modified Eagle medium (DMEM) (Sigma, #D6046) containing 10% dialyzed FBS (Biowest, #S180D), 1× Non-Essential Amino Acid (Invitrogen, #11140-050) and 50 μg/mL Gentamycin (Invitrogen, #15750-060), and the cell line that stably expressed the plasmid gene was selected. By a receptor binding assay using 2-[^125I] Iodomelatonin, CHO-hMelR7 cell line showing specific binding of 2-[^125I] Iodomelatonin was selected from the obtained clones.
(§2) (3) Preparation of Cellular Membrane Fraction of CHO Cell (CHO-hMelR7 and CHO-hMT2) Stably Expressing Human MT1 and MT2 Receptors
(§3) CHO-hMelR7 and CHO-hMT2 cells were plated using Cellfactory (Nunc, #170009) under the conditions of 1×10^8 cells/2000 mL/flask. The cells were grown to confluent, and recovered by the following method. As the medium for CHO-hMelR7 and CHO-hMT2, MEM α containing 10% FBS and penicillin/streptomycin was used. […] of geneticin was added to the medium for CHO-hMT2.
(§4) The medium was discarded, cells were washed twice with 200 mL of EDTA/PBS(−), 200 mL of EDTA/PBS(−) was further added, and the cells were stood still at room temperature for 20 min until they were released. The cells were recovered in four 50 mL tubes (Becton Dickinson, #352070), and centrifuged at 1,500 rpm for 10 min at 4° C. using a low speed cooling centrifuge (Hitachi, CF7D2). The supernatant was discarded, the pellets in the four tubes were suspended in 10 mL of PBS(−), and combined in one tube (Becton Dickinson, #352070). The mixture was further centrifuged at 1,500 rpm for 10 min at 4° C., and the obtained pellets were suspended in 20 mL of ice-cooled homogenizing buffer [10 mM NaHCO3, 5 mM EDTA, Protease inhibitor Complete (Roche), pH 7.4]. The cell suspension was homogenized 3 times using a polytron homogenizer at 20,000 rpm for 30 sec. The obtained homogenate was centrifuged (2,000 rpm, 10 min, 4° C.) using a low speed cooling centrifuge. The supernatant was recovered in an ultracentrifugation tube and ultracentrifuged (40,000 rpm, 60 min, 4° C.) using an ultracentrifuge (Beckman, L-90K). To the obtained pellets was added a suspending buffer [50 mM Tris-HCl, 1 mM EDTA, Protease inhibitor Complete (Roche), pH 7.4], and the pellets were suspended by pipetting. The protein concentration of this suspension was measured, diluted to 2 mg/mL to give cellular membrane fractions of CHO-hMelR7 and CHO-hMT2 cells. The membrane fractions were dispensed to 1.5 mL tubes (Eppendorf, #0030120.086) by 100 μL, preserved in a freezer (−80° C.) and used for a binding assay. Protein was quantified using BCA protein assay kit (Pierce) with BSA as the standard.
(§5) (4) Preparation of Membrane Fraction Suspension
(§6) Immediately before use, the membrane fractions of CHO-hMelR7 and CHO-hMT2 cells of the above-mentioned (3) were diluted 20-fold with assay buffer (50 mM Tris-HCl, pH 7.7).
(§7) (5) Preparation of 2-[^125I] Iodomelatonin Solution
(§8) 2-[^125I] Iodomelatonin (#NEX236, PerkinElmer) was diluted with the assay buffer to 400 pM for MT1 and 1 nM for MT2.
(§9) The assay buffer (80 μL) of the above-mentioned (4) was added to each well of a 96-well plate (type 3363, Corning). […]

Series [2] deals with T2, human melatonin 2 receptors (human MT2 receptors) (Homo sapiens, UniProt P49286).
T2 construct: expressed in transfected cells; membrane fraction used
T2 sequence (P49286 1-362): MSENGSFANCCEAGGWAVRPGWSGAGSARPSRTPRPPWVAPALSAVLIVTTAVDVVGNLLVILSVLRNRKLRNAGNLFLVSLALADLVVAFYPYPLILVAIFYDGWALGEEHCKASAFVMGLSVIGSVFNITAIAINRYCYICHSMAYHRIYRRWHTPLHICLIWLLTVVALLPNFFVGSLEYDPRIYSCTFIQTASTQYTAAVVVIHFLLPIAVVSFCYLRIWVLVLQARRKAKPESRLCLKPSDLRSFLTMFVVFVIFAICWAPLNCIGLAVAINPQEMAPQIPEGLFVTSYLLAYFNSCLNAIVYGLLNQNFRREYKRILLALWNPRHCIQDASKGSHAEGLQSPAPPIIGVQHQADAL
Description: Melatonin receptor binding inhibitory test (2-[125I] Iodomelatonin), MT2. The conditions noted are these: membrane fraction of CHO-hMT2 cells, 25° C. for 2.5 hr. The protocol:
as §1
(2) Preparation of CHO-hMT2 Cells Expressing Human Melatonin 2 Receptors
A cDNA fragment (SEQ ID NO: 2) encoding full-length of human melatonin 2 receptors (human MT2 receptors) was incorporated into expression vector pCMV-Script (Stratagene, #212220) to give the plasmid that was pCMV-human MT2 receptors expression vector for animal cell expression. CHO-K1 cells (ATCC, #CCL-61) were plated at the concentration of 1.5×10^5 cells/cm^2 in a 6 well plate (ASAHI TECHNO GLASS), and cultured under the conditions of 37° C., 5% CO2 for 24 hr. For gene transfection, solution obtained by blending pCMV-human MT2 receptors expression vector (1.9 μg), Lipofectamine Transfection Reagent (Invitrogen, #18324-012) (11.3 μL) and Minimum Essential Medium Eagle (MEM) medium (Sigma, M8042) (93.8 μL), and reacting at room temperature for 20 min was added to the cells per one well. The transfected cells were cultured in MEM medium containing 10% FBS (Life Technology) and 300 μg/mL Geneticin (GIBCO, #10131), and the cell line that stably expressed the plasmid gene was selected. By a receptor binding assay using 2-[^125I] Iodomelatonin, CHO-hMT2 cell line showing specific binding of 2-[^125I] Iodomelatonin was selected from the obtained clones.
as §2, §3, §4, §5, §6, §7, §8, §9

By pIC50 is commonly meant −log10 of the IC50, conventionally taken in molar units. A lower pIC50 goes with a high IC50. By melting point is commonly meant the temperature of the solid-liquid transition.

Each structure is given as a SMILES string. pIC50: −log10 of the molar value.

T1 sequence (P48039 whole entry): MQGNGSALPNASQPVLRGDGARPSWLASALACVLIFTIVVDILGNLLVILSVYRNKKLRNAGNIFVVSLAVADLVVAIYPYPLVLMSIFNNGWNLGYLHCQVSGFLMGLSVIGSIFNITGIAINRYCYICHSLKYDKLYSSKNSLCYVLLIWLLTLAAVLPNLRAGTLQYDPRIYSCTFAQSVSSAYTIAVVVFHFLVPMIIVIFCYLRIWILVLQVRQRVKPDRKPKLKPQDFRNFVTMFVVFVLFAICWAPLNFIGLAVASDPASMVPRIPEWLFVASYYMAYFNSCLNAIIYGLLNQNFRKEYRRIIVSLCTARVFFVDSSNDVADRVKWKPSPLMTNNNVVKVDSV

For the compound `CC(=O)NCC=C1CCc2ccc3nn(C)cc3c21` [Example 1, N-[2-(2-methyl-6,7-dihydrocyclopenta[e]indazol-8(2H)-ylidene)ethyl]acetamide], the melting point was in the range of 200 to 202 °C. Also, in series [1], the negative logarithm of the IC50 (pIC50) is not below 7.00. In addition, in series [2], the pIC50 was not below 7.00.
On to `CC(=O)NCCC1CCc2ccc3nn(C)cc3c21` (stereo not shown) [Example 2, N-[2-(2-methyl-2,6,7,8-tetrahydrocyclopenta[e]indazol-8-yl)ethyl]acetamide], for which the pIC50 in series [1] and in series [2] was not below 7.00 throughout.
As to `CC(=O)NCC[C@@H]1CCc2ccc3nn(C)cc3c21` [Example 3], the pIC50 in series [1] and in series [2] was not below 7.00 in each case.
In the case of `CCC(=O)NCC=C1CCc2ccc3nn(C)cc3c21` [Example 5, N-[2-(2-methyl-6,7-dihydrocyclopenta[e]indazol-8(2H)-ylidene)ethyl]propanamide], the melting point was in the range of 185 to 187 °C. Further, the pIC50 in series [1] was not below 7.00. In addition, in series [2], the pIC50 was not below 7.00.
On to `CCC(=O)NCCC1CCc2ccc3nn(C)cc3c21` (stereo not shown) [Example 6, N-[2-(2-methyl-2,6,7,8-tetrahydrocyclopenta[e]indazol-8-yl)ethyl]propanamide], for which the pIC50 in series [1] and in series [2] was not below 7.00 throughout.
Turning to `CC(=O)NCC=C1CCc2ccc3nn(C)c(C)c3c21` [Example 7, N-[2-(1,2-dimethyl-6,7-dihydrocyclopenta[e]indazol-8(2H)-ylidene)ethyl]acetamide], the melting point was in the range of 200 to 203 °C. In series [1], this compound gave a pIC50 not below 7.00. This compound showed a negative-log IC50 (pIC50) in series [2] not below 7.00.
Take `CC(=O)NCCC1CCc2ccc3nn(C)c(C)c3c21` (stereo not shown) [Example 8, N-[2-(1,2-dimethyl-2,6,7,8-tetrahydrocyclopenta[e]indazol-8-yl)ethyl]acetamide]: the melting point is 146 to 149 °C. In series [1], this compound had a pIC50 not below 7.00. Also, in series [2], the pIC50 was not below 7.00.
`CC(=O)NCCC1CCc2ccn3ncc(C)c3c21` (stereo not shown) [Example 10, N-[2-(1-methyl-8,9-dihydro-7H-cyclopenta[c]pyrazolo[1,5-a]pyridin-9-yl)ethyl]acetamide] showed a melting point of 121 to 122 °C.
With `CC(=O)NCCC1CCc2ccn3nccc3c21` (stereo not shown) [Example 11, N-[2-(8,9-dihydro-7H-cyclopenta[c]pyrazolo[1,5-a]pyridin-9-yl)ethyl]acetamide], the melting point lay within 100 to 101 °C. The same compound gave a pIC50 in series [1] not below 7.00. In series [2], the pIC50 is not below 7.00.
Compound `CCC(=O)NCCC1CCc2ccn3nccc3c21` (stereo not shown) [Example 12, N-[2-(8,9-dihydro-7H-cyclopenta[c]pyrazolo[1,5-a]pyridin-9-yl)ethyl]propanamide] yielded a melting point of 72 to 73 °C. The pIC50 in series [1] was not below 7.00. Also, the negative-log IC50 (pIC50) in series [2] is not below 7.00.
The compound `CCOC(=O)c1c(C)nn2ccc3c(c12)C(CCNC(C)=O)CC3` (stereo not shown) [Example 13, ethyl 9-[2-(acetylamino)ethyl]-2-methyl-8,9-dihydro-7H-cyclopenta[c]pyrazolo[1,5-a]pyridine-1-carboxylate] yielded a melting point of 101 to 103 °C.
With `CC(=O)NCCC1CCc2ccn3nc(C)c(C)c3c21` (stereo not shown) [Example 14, N-[2-(1,2-dimethyl-8,9-dihydro-7H-cyclopenta[c]pyrazolo[1,5-a]pyridin-9-yl)ethyl]acetamide], the melting point is 134 to 135 °C. Further, in series [1], the pIC50 is not below 7.00. In series [2], this compound gave a pIC50 not below 7.00.
On to `CC(=O)NCCC1CCc2ccn3nc(C)cc3c21` (stereo not shown) [Example 18, N-[2-(2-methyl-8,9-dihydro-7H-cyclopenta[c]pyrazolo[1,5-a]pyridin-9-yl)ethyl]acetamide], for which the pIC50 in series [1] and in series [2] was not below 7.00 each time.
With `CC(=O)NCC[C@@H]1CCc2ccn3nc(C)cc3c21` [Example 19, N-{2-[(9S)-2-methyl-8,9-dihydro-7H-cyclopenta[c]pyrazolo[1,5-a]pyridin-9-yl]ethyl}acetamide], the pIC50 in series [1] and in series [2] was not below 7.00 throughout.
Take `CCc1cc2c3c(ccn2n1)CCC3CCNC(C)=O` (stereo not shown) [Example 21, N-[2-(2-ethyl-8,9-dihydro-7H-cyclopenta[c]pyrazolo[1,5-a]pyridin-9-yl)ethyl]acetamide]: the pIC50 in series [1] and in series [2] was not below 7.00 each time.
For the compound `CC(=O)NCCC1CCc2ccc3nc(C)cn3c21` (stereo not shown) [Example 22, N-[2-(2-methyl-7,8-dihydro-6H-cyclopenta[e]imidazo[1,2-a]pyridin-8-yl)ethyl]acetamide], the pIC50 in series [1] and in series [2] was not below 7.00 throughout.
For `CC(=O)NCC[C@@H]1CCc2ccc3nn(C)c(Br)c3c21` [Example 25, N-{2-[(8S)-1-bromo-2-methyl-2,6,7,8-tetrahydrocyclopenta[e]indazol-8-yl]ethyl}acetamide], the pIC50 in series [1] and in series [2] was not below 7.00 in each case.
Turning to `CCC(=O)NCCC1CCc2ccn3nc(C)cc3c21` (stereo not shown) [Example 32, N-[2-(2-methyl-8,9-dihydro-7H-cyclopenta[c]pyrazolo[1,5-a]pyridin-9-yl)ethyl]propanamide], the pIC50 in series [1] and in series [2] was not below 7.00 throughout.
The compound `CC(=O)NCCC1CCc2ccn3nc(-c4ccccc4)cc3c21` (stereo not shown) [Example 34, N-[2-(2-phenyl-8,9-dihydro-7H-cyclopenta[c]pyrazolo[1,5-a]pyridin-9-yl)ethyl]acetamide] showed a melting point of 159 to 160 °C. The pIC50 in series [2] was not below 7.00.

The record behind these values is patent publication US8247429B2, “Tricyclic compound and pharmaceutical use thereof” (Takeda Pharmaceutical Company Limited, priority 2006, dated 2012).
